Consider three compounds from paper PMC6618047 (Clinical Pharmacology in Drug Development, 2018).

Like-named read-outs stand apart in the source and are kept apart here.

The conditions of data set [1]: cited from earlier work.
For data set [2] the following is noted: for AUC(0-inf) / AUC(0-t) / Cmax / Tmax / half-life: plasma, single oral dose, healthy subjects; for AUC(0-inf): AUCinf; for AUC(0-inf) / AUC(0-t) / Cmax / Tmax / half-life / Fed:Fasted GMR (90% CI) AUCinf / Fed:Fasted GMR (90% CI) Cmax: ertugliflozin 15-mg/sitagliptin 100-mg FDC tablet; for AUC(0-t): AUClast; for Tmax: median (range); for half-life: t1/2, arithmetic mean ± SD; for Fed:Fasted GMR (90% CI) AUCinf / Fed:Fasted GMR (90% CI) Cmax: adjusted geometric mean ratio fed:fasted.

A short description of data set [3]: Food-effect pharmacokinetic study of ertugliflozin 15-mg tablet. Particulars: for AUC(0-t): AUClast.
For data set [4] the following is noted: high solubility and high permeability; no reference given; cited from earlier work.
The conditions of data set [5]: for AUC(0-inf): AUCinf; for AUC(0-t): AUClast; for Fed:Fasted GMR (90% CI) AUCinf / Fed:Fasted GMR (90% CI) Cmax: adjusted geometric mean ratio fed:fasted.
Data set [6] in a line: Summary across the 3 food-effect studies. It counts as in vivo, human.
The conditions of data set [7]: early phase 1 and 2 studies, no reference given; cited from earlier work.
The conditions of data set [8]: metformin 850 mg alone; cited from earlier work.
The conditions of data set [9]: sitagliptin monotherapy, cited from earlier work.
Setting [10] is: both, human, po, geometric mean (geometric %CV), fasted.
The mark [11] stands for this setting: both, human, po, geometric mean (geometric %CV), fed (high-fat breakfast).
Setting [12] is: both, human, po, fed (high-fat breakfast).
[13] abbreviates: ertugliflozin 15-mg tablet, adjusted geometric mean ratio fed:fasted.
Where [14] appears, read: both, human, plasma, po, arithmetic mean ± SD, ertugliflozin 7.5-mg/metformin 1000-mg FDC tablet, single oral dose, healthy subjects, fed (high-fat breakfast).
Where [15] appears, read: both, human, plasma, po, geometric mean (geometric %CV), ertugliflozin 7.5-mg/metformin 1000-mg FDC tablet, single oral dose, healthy subjects, fasted.
[16] abbreviates: both, human, plasma, po, geometric mean (geometric %CV), ertugliflozin 7.5-mg/metformin 1000-mg FDC tablet, single oral dose, healthy subjects, fed (high-fat breakfast).
[17] abbreviates: ertugliflozin 7.5-mg/metformin 1000-mg FDC tablet.

Take `CCOc1ccc(Cc2cc([C@]34OC[C@](CO)(O3)[C@@H](O)[C@H](O)[C@H]4O)ccc2Cl)cc1` [Ertugliflozin]: the “Dose proportionality of exposure” value in data set [1] (dose range of 0.5 to 300 mg) is reported as “dose proportional”. In [1] (phase 1 studies, oral administration, fasted conditions), the “median Tmax” value was 0.5 to 1.5 h. In addition, in data set [1] (phase 1 studies), the “terminal elimination half-life (t1/2)” value is 11 to 17 h. For the same compound, the “Decrease of Cmax in the fed state compared with the fasted state” value in data set [2] (administered as ertugliflozin/sitagliptin FDC, based on adjusted GMR) stood at 30%; in [3] (administered as monotherapy (15-mg tablet), based on adjusted GMR), 29%; in data set [5] (administered as ertugliflozin/metformin FDC, based on adjusted GMR), 41%. Further, the AUC(0-inf) stood at 1170 ng·h/mL in data set [2] (setting [10]); 1110 ng·h/mL in data set [2] (setting [11]); 1330 ng·h/mL in [3] (both, human, plasma, po, 15 mg, AUCinf, geometric mean (geometric %CV), ertugliflozin 15-mg tablet, single oral dose, healthy subjects, fasted); 621 ± 168 ng·h/mL in data set [5] (setting [14]); 655 ng·h/mL in [5] (setting [15]); 602 ng·h/mL in data set [5] (setting [16]). Besides, the AUC(0-t) came to 1150 ng·h/mL in data set [2] (setting [10]); 1090 ng·h/mL in [2] (setting [11]); 1310 ng·h/mL in data set [3] (both, human, plasma, po, 15 mg, geometric mean (geometric %CV), ertugliflozin 15-mg tablet, single oral dose, healthy subjects, fasted); 1220 ng·h/mL in [3] (both, human, plasma, po, 15 mg, geometric mean (geometric %CV), ertugliflozin 15-mg tablet, single oral dose, healthy subjects, fed (high-fat breakfast)); 606 ± 166 ng·h/mL in data set [5] (setting [14]); 640 ng·h/mL in data set [5] (setting [15]). In [5] (setting [16]), the AUC(0-t) turned out to be 587 ng·h/mL. The Cmax amounted to 223 ng/mL in data set [2] (both, human, po, Cmax, geometric mean (geometric %CV), fasted); 157 ng/mL in [2] (both, human, po, Cmax, geometric mean (geometric %CV), fed (high-fat breakfast)); 271 ng/mL in [3] (both, human, plasma, po, 15 mg, Cmax, geometric mean (geometric %CV), ertugliflozin 15-mg tablet, single oral dose, healthy subjects, fasted); 82.3 ± 40.7 ng/mL in data set [5] (setting [14]); 126 ng/mL in data set [5] (setting [15]); 75.3 ng/mL in data set [5] (setting [16]). In data set [2] (setting [12]), the Tmax (in general, the time from dosing to the highest level) came to 2 h. Besides, the half-life (commonly the time needed for the level to fall by half in the phase considered) was 11.6 ± 2.3 h in data set [2] (setting [12]); 11.5 ± 2.6 h in [3] (both, human, plasma, po, 15 mg); 11.2 ± 4.5 h in data set [5] (both, human, plasma, po, t1/2, arithmetic mean ± SD, ertugliflozin 7.5-mg/metformin 1000-mg FDC tablet, single oral dose, healthy subjects, fed (high-fat breakfast)). Further, the results for the “Fed:Fasted GMR (90% CI) AUCinf” value in data set [2], in [3] (setting [13]) and in [5] (setting [17]) were 94.6 (91.6–97.8) %, 91.7 (88.0–95.4) % and 93.8 (90.1–97.7) %, respectively. The results for the “Fed:Fasted GMR (90% CI) Cmax” value in data set [2], in data set [3] (setting [13]) and in [5] (setting [17]) were 70.5 (63.3–78.4) %, 70.7 (61.7–80.9) % and 59.4 (51.1–69.1) %, respectively. Also, the “Biopharmaceutical Classification System (BCS) class” value in data set [4] is reported as “class I”. In addition, in [6] (in all 3 studies), the “Delay of median Tmax, fed compared with fasted” value stood at 1 h. Further, in data set [6] (range across the 3 studies), the “Reduction of Cmax, fed compared with fasted” value is listed as 29%–41%. The Maximum tolerated dose result in data set [7] is given as “has not been identified”.
For `CN(C)C(=N)N=C(N)N` [Metformin], the “Delay of Tmax, fed versus fasted” value in data set [5] (administered as ertugliflozin/metformin FDC tablet) came to 1.7 h. The Tmax in data set [5] (both, human, plasma, po) turned out to be 2.3 h. For the same compound, the Cmax in data set [5] (setting [14]) was determined as 1520 ± 417 ng/mL. This compound gave a Cmax in data set [5] (setting [15]) of 2040 ng/mL. This compound also registered a Cmax in [5] (setting [16]) of 1460 ng/mL. In data set [5] (setting [17]), the “Fed:Fasted GMR (90% CI) AUCinf” value was 92.8 (85.1–101.3) % and the “Fed:Fasted GMR (90% CI) Cmax” value is 70.7 (63.6–78.5) %. Besides, in data set [5] (ertugliflozin 7.5-mg/metformin 1000-mg FDC tablet, single oral dose, healthy subjects, plasma, fed (high-fat breakfast)), the “Tmax, median (range)” value is 4.0 (0.5–8.0) h. Besides, in data set [8], the “Increase in Tmax, fed versus fasted” value is given as “approximately 35 minute”; the “Lower AUC, fed versus fasted” value is on record as 25%; the “Lower mean Cmax, fed versus fasted” value is recorded as 40%.
For the compound `N[C@@H](CC(=O)N1CCn2c(nnc2C(F)(F)F)C1)Cc1cc(F)c(F)cc1F` [Sitagliptin], in data set [2] (setting [11]), the AUC(0-inf) was 7.1 µM·h. Also, the AUC(0-t) in data set [2] (setting [10]) stood at 7.3 µM·h. Further, in data set [2] (setting [12]), the Tmax is 1.8 h and the half-life was 12.1 ± 1.6 h. In [2], the “Fed:Fasted GMR (90% CI) AUCinf” value was 96.6 (94.0–99.4) % and the “Fed:Fasted GMR (90% CI) Cmax” value was 96.1 (82.4–112.1) %. The Cmax in data set [2] (read-out: Cmax, geometric mean (geometric %CV), fed (high-fat breakfast), 1.00 ng/mL = 2.46 nM) stood at 721 nM. The “fed:fasted GMR for Cmax” value in [9] (90% CI 86%–103%) was 94%. Besides, in [9] (90% CI 97%–111%), the “fed:fasted GMR for AUCinf” value is recorded as 103%.
